Activity calls are given as the source filed them. The rule behind the calls is not given here.
Key:
[1] = Cytotoxicity against HEK293T cells assessed as cell death at 30 uM after 24 hrs by CCK8 assay; assay type: cell-based; settings: human, hek-293t
Tumor necrosis factor [2] = molecular target: T1, Tumor necrosis factor (Homo sapiens, UniProt P01375); assay: Inhibition of human TNFalpha induced NFkappaB activation in HEK293T cells after 6 hrs by dual-glo luciferase assay; assay type: cell-based, HEK-293T; settings: for inhibition: HEK-293T
T1 sequence (P01375 whole entry): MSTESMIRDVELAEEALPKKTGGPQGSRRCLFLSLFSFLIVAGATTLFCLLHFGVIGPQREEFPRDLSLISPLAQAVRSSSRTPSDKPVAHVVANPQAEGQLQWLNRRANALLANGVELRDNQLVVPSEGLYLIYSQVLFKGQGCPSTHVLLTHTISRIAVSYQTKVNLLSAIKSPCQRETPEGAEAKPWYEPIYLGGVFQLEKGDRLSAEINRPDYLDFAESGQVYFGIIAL

Tumor necrosis factor [3] = molecular target: T1, Tumor necrosis factor; assay: Binding affinity to human TNFalpha expressed in Escherichia coli by surface plasmon resonance method
[4] = Cytotoxicity against HEK293T cells at >300 uM after 24 hrs by CCK8 assay; assay type: cell-based; settings: human, hek-293t
Tumor necrosis factor [5] = molecular target: T1, Tumor necrosis factor; assay: Inhibition of human TNFalpha expressed in Escherichia coli assessed as trimer to dimer transition at 5 uM measured after 12 hrs by mass spectrometry
Tumor necrosis factor [6] = molecular target: T1, Tumor necrosis factor; assay: Inhibition of human TNFalpha expressed in Escherichia coli assessed as increase in TNF-alpha dimer level after 15 mins by SDS-PAGE analysis
Tumor necrosis factor [7] = molecular target: T1, Tumor necrosis factor; assay: Inhibition of human TNFalpha expressed in Escherichia coli assessed as decrease in TNF-alpha trimer level after 15 mins by SDS-PAGE analysis
Tumor necrosis factor [8] = molecular target: T1, Tumor necrosis factor; assay: Inhibition of human TNFalpha expressed in Escherichia coli assessed as increase in TNFalpha monomer level after 15 mins by SDS-PAGE analysis

Molecule | mortality [1] [%] | IC50 (Tumor necrosis factor [2]) [µM] | Kd (Tumor necrosis factor [3]) [nM] | Activity [4] | inhibition (Tumor necrosis factor [2]) | inhibition (Tumor necrosis factor [5]) | inhibition (Tumor necrosis factor [6]) | inhibition (Tumor necrosis factor [7]) | inhibition (Tumor necrosis factor [8])
Cc1cc2occ(CN(C)CCN(C)Cc3cn(-c4cccc(C(F)(F)F)c4)c4ccccc34)c(=O)c2cc1C | 50 |  |  |  |  |  |  |  | 
CC[C@H](C)[C@H](NC(=O)[C@H](CCC(N)=O)NC(=O)[C@H](CCC(N)=O)NC(=O)[C@H](Cc1ccccc1)NC(=O)[C@H](CCC(=O)O)NC(=O)[C@H](CCC(N)=O)NC(=O)[C@@H](NC(=O)[C@H](CCC(=O)O)NC(=O)[C@H](CCC(N)=O)NC(=O)[C@H](Cc1c[nH]c2ccccc12)NC(=O)[C@H](CC(N)=O)NC(=O)[C@H](CCCNC(=N)N)NC(=O)[C@H](CCCCN)NC(=O)[C@H](CC(C)C)NC(=O)[C@H](CCC(=O)O)NC(=O)[C@H](CC(=O)O)NC(=O)[C@H](CCC(=O)O)NC(=O)[C@H](C)NC(=O)[C@@H](N)CC(=O)O)[C@@H](C)CC)C(=O)N[C@@H](CC(C)C)C(=O)N[C@@H](CCC(N)=O)C(=O)N[C@@H](CCSC)C(=O)N[C@@H](Cc1ccccc1)C(=O)N[C@@H](Cc1ccccc1)C(=O)N[C@@H](CCC(=O)O)C(=O)N[C@@H](Cc1c[nH]c2ccccc12)C(=O)N[C@@H](Cc1c[nH]c2ccccc12)C(=O)N[C@@H](CCC(N)=O)C(=O)N[C@@H](CCCCN)C(=O)N[C@@H](CC(=O)O)C(=O)O |  | 11.9 | 390 | Non-toxic |  |  |  |  | 
CC[C@@H](C)[C@@H](NC(=O)[C@@H](CCC(N)=O)NC(=O)[C@@H](CCC(N)=O)NC(=O)[C@@H](Cc1ccccc1)NC(=O)[C@@H](CCC(=O)O)NC(=O)[C@@H](CCC(N)=O)NC(=O)[C@H](NC(=O)[C@@H](CCC(=O)O)NC(=O)[C@@H](CCC(N)=O)NC(=O)[C@H](Cc1c[nH]c2ccccc12)NC(=O)[C@H](CC(N)=O)NC(=O)[C@H](CCCNC(=N)N)NC(=O)[C@H](CCCCN)NC(=O)[C@H](CC(C)C)NC(=O)[C@H](CCC(=O)O)NC(=O)[C@H](CC(=O)O)NC(=O)[C@H](CCC(=O)O)NC(=O)[C@H](C)NC(=O)[C@H](N)CC(=O)O)[C@@H](C)CC)C(=O)N[C@H](CC(C)C)C(=O)N[C@H](CCC(N)=O)C(=O)N[C@H](CCSC)C(=O)N[C@H](Cc1ccccc1)C(=O)N[C@H](Cc1ccccc1)C(=O)N[C@H](CCC(=O)O)C(=O)N[C@H](Cc1c[nH]c2ccccc12)C(=O)N[C@@H](Cc1c[nH]c2ccccc12)C(=O)N[C@@H](CCC(N)=O)C(=O)N[C@H](CCCCN)C(=O)N[C@@H](CC(=O)O)C(=O)O |  |  |  |  | Dose-dependent effect | Active | Active | Active | Active
CC[C@@H](C)[C@H](NC(=O)[C@H](CCC(=O)O)NC(=O)[C@H](CCC(N)=O)NC(=O)[C@@H](Cc1c[nH]c2ccccc12)NC(=O)[C@@H](CC(N)=O)NC(=O)[C@@H](CCCNC(=N)N)NC(=O)[C@@H](CCCCN)NC(=O)[C@@H](CC(C)C)NC(=O)[C@@H](CCC(=O)O)NC(=O)[C@@H](CC(=O)O)NC(=O)[C@@H](CCC(=O)O)NC(=O)[C@@H](C)NC(=O)[C@@H](N)CC(=O)O)C(=O)N[C@@H](CCC(N)=O)C(=O)N[C@@H](CCC(=O)O)C(=O)N[C@@H](C)C(=O)N[C@@H](CCC(N)=O)C(=O)N[C@@H](CCC(N)=O)C(=O)N[C@H](C(=O)N[C@@H](CC(C)C)C(=O)N[C@@H](CCC(N)=O)C(=O)N[C@@H](CCSC)C(=O)N[C@@H](Cc1ccccc1)C(=O)N[C@@H](Cc1ccccc1)C(=O)N[C@@H](CCC(=O)O)C(=O)N[C@@H](Cc1c[nH]c2ccccc12)C(=O)N[C@H](Cc1c[nH]c2ccccc12)C(=O)N[C@H](CCC(N)=O)C(=O)N[C@@H](CCCCN)C(=O)N[C@H](CC(=O)O)C(=O)O)[C@@H](C)CC |  |  |  |  | inactive |  |  |  | 
CC[C@@H](C)[C@H](NC(=O)[C@H](CCC(N)=O)NC(=O)[C@H](CCC(N)=O)NC(=O)[C@H](Cc1ccccc1)NC(=O)[C@H](CCC(=O)O)NC(=O)[C@H](CCC(N)=O)NC(=O)[C@@H](NC(=O)[C@H](CCC(=O)O)NC(=O)[C@H](CCC(N)=O)NC(=O)[C@@H](Cc1c[nH]c2ccccc12)NC(=O)[C@H](CC(N)=O)NC(=O)[C@H](CCCNC(=N)N)NC(=O)[C@H](CCCCN)NC(=O)[C@H](CC(C)C)NC(=O)[C@H](CCC(=O)O)NC(=O)[C@H](CC(=O)O)NC(=O)[C@H](CCC(=O)O)NC(=O)[C@H](C)NC(=O)[C@H](N)CC(=O)O)[C@@H](C)CC)C(=O)N[C@@H](C)C(=O)N[C@@H](CCC(N)=O)C(=O)N[C@@H](CCSC)C(=O)N[C@@H](Cc1ccccc1)C(=O)N[C@@H](Cc1ccccc1)C(=O)N[C@@H](CCC(=O)O)C(=O)N[C@@H](Cc1c[nH]c2ccccc12)C(=O)N[C@@H](Cc1c[nH]c2ccccc12)C(=O)N[C@@H](CCC(N)=O)C(=O)N[C@H](CCCCN)C(=O)N[C@@H](CC(=O)O)C(=O)O |  |  |  |  | inactive |  |  |  | 
H-DAEDELKRNWQAIQEFQQILQMFFEWWQKD-OH |  |  |  |  | inactive |  |  |  | 
H-LREQRLKEHLQEIQIFEQWLQIFQEQFQKF-OH |  |  | 500 | Non-toxic | inactive |  |  |  | 
H-QEKWFAEQYARMVLEWIEKELKESL-OH |  | 20.7 | 500 | Non-toxic | Dose-dependent effect | Active | Active | Active | Active
H-RQQEELYKKWLQEFWKWFQIALQLD-OH |  | 32.6 | 500 | Non-toxic | Dose-dependent effect | Active | Active | Active | Active
H-SEQELKQIFQQVFQWWQLWEQFEKQ-OH |  |  |  |  |  | Active | Active | Active | Active

— ChEMBL document CHEMBL3804771, “De novo design of helical peptides to inhibit tumor necrosis factor- by disrupting its trimer formation” (Medchemcomm, 2016)
